{"source": "patent US6291496A", "about": "“Treating cancers associated with overexpression of class I family of receptor tyrosine kinases” (priority 1999, dated 2001)", "key": {"[1]": {"system": "HER-2/neu in 184B5/HER cells", "assay": "immunoblot for HER-2/neu in 184B5/HER cells", "assay_type": "cell-based, human", "details": "25 μM ciglitazone or 20 μM 15-d-PGJ2, 24 hours", "excerpt": "(§1) The 184B5/HER cell line was obtained from a collaborator and was derived by stably transfecting 184B5 cells with a mutationally activated HER-2/neu oncogene; these cells form rapidly growing tumors when injected into athymic nude mice. The 184B5/HER cell line is described in Pierce, J. H., et al., Oncogene 6, 1189-1194 (1991). The BT-474 cell line is a human breast cancer adenocarcinoma cell line which overexpresses HER-2/neu, and was obtained from the American Type Culture Collection (Manassas, Va.) and bears accession number ATCC HBT-20.\n(§2) 184B5/HER cells were maintained in MEM-KBM mixed in a ratio of 1:1 (basal medium) containing epidermal growth factor (10 ng/ml), hydrocortisone (0.5 μg/ml), transferrin (10 μg/ml), gentamicin (5 μg/ml) and insulin (10 μg/ml) (growth medium). […] cells were grown to 60% confluence, trypsinized with 0.05% trypsin-2 mM ethylenediaminotetraacetic acid, and plated for experimental use. […]\n(§3) 184B5/HER cells were treated with vehicle (0.01% dimethylsulfoxide), 25 μM ciglitazone (Biomol, Plymouth Meeting, Pennsylvania) or 20 μM 15-d-PGJ2 (Biomol, Plymouth Meeting, Pennsylvania) for 24 hours. […] The protein concentration of the supernatant was measured by the method of Lowry, O. H., et al, J. Biol. Chem. 193, 265-275 (1951). […]"}, "HER-2/neu in BT474 cells": {"system": "HER-2/neu in BT474 cells", "assay": "immunoblot for HER-2/neu in BT474 cells", "assay_type": "cell-based, human", "details": "25 μM ciglitazone", "excerpt": "as §1, §2, §3"}, "HER-2/neu promoter": {"system": "HER-2/neu promoter", "assay": "transient transfection assay, human HER-2/neu promoter construct ligated to luciferase, 184B5/HER cells", "assay_type": "cell-based", "details": "0-25 μM, 24 hours, FIG. 1", "description": "To determine whether PPARγ ligands inhibit HER-2/neu promoter activity, a transient transfection assay was performed. 184B5/HER cells were transfected with 1.8 μg of a human HER-21neu promoter construct ligated to luciferase (-1571/--24) and 0.2 μg pSVβgal (Promega Corp., Madison Wis.). The HER-2/neu promoter (-1571/--24) is described in Hudson, L. G. et al, J. Biol. Chem. 265, 4389-4393 (3/90), the whole of which is incorporated herein by reference. The promoter constructs are described in Hudson, L. G., et al, Cell 62, 1165-1175(1990). 184B5/HER cells were seeded at a density of5×10^4 cells well in 6-well dishes and grown to 50-60% confluence. For each well, 2 μg of […] DNA were introduced into cells using 8 μg of LIPOFECTAMINE (Life Technologies, Inc., Grand Island, N.Y.) as per the manufacturer's instructions. Following transfection, the cells were treated with ciglitazone (0, 5, 10, 15, 20 and 25 μM) or 15d-PGJ2 (0, 5, 10, 15, 20 and 25 μM) for 24 hours.\nThe activities of luciferase and β-galactosidase were measured in cellular extract as described in Mestre, J. R. et al, Cancer Res. 57, 1081-1085 (1997)."}, "[2]": {"system": "EGFR in 184B5 mammary epithelial cells", "assay": "immunoblot for EGFR in 184B5 cells", "assay_type": "cell-based, human", "details": "ciglitazone 5-30 μM or 15-d-PGJ2 5, 10 μM, 24 hours", "description": "The cells used were 184B5 cells. The 184B5 cell line was obtained from a collaborator and is an immortalized but non-tumorigenic human breast epithelial cell line that was established from a reduction mammaplasty and is described in Stampler, M. R, et al, Proc. Natl. Acad. Sci. USA 82, 2394-2398 (1985).\n184B5 cells were maintained in MEM-KBM mixed in a ratio of 1:1 (basal medium) containing epidermal growth factor (10 ng/ml), hydrocortisone (0.5 μg/ml), transferrin (10 μg/ml), gentamicin (5 μg/ml), and insulin (10 μg/ml) (growth medium). 184B5 cells were grown to 60% confluence, trypsinized with 0.05% trypsin-2 mM ethylenediaminotetraacetic acid and plated for experimental use.\n184B5 cells were treated with vehicle (0.01% dimethyl sulfoxide), ciglitazone (5, 10, 20, 30 μM) or 15-d-PGJ2 (5, 10 μM) for 24 hours. Cell lysates were prepared in RIPA buffer. Lysates were sonicated for 20 seconds on ice and centrifuged at 10,000×g for 10 minutes to sediment the particulate material. The protein concentration of the supernatant was measured by the method of Lowry,. O. H., et al, J. Biol. Chem. 193, 265-275 (1951). Cellular lysate protein (100 μg/lane) was loaded onto a 10% SDS-polyacrylamide gel, electrophoresed and subsequently transferred onto a nitrocellulose membrane(Schleicher & Schuell Keene, N. H.). […]"}, "[3]": {"system": "HER-2/neu positive breast cancer", "assay": "Example I: adjuvant therapy after mastectomy", "assay_type": "in vivo, human", "details": "patient, oral 5 mg/kg twice per day for five years after mastectomy"}, "[4]": {"system": "HER-2/neu positive breast cancer", "assay": "Example II: adjuvant therapy with PPARγ ligand and HERCEPTIN", "assay_type": "in vivo, human", "details": "patient, oral 5 mg/kg twice daily for one year, with HERCEPTIN 250 mg IV loading then 10 weekly doses of 125 mg"}, "[5]": {"system": "HER-2/neu positive breast cancer metastasized to bone", "assay": "Example IV: breast cancer metastasized to bone", "assay_type": "in vivo, human", "details": "patient after failure of prior chemotherapy, oral 5 mg/kg twice daily plus HERCEPTIN", "description": "After 90 days, oral cyclophosphamide at a dose of 3 mg/kg/day and doxorubicin administered intravenously weekly at a dose of 20 mg/m^2, are added to the drug regimen."}, "[6]": {"system": "HER-2/neu positive colon cancer", "assay": "Example V: after resection of colon cancer", "assay_type": "in vivo, human", "details": "patient, oral 5 mg/kg twice daily for five years after resection"}, "[7]": {"system": "non-small cell lung carcinoma where EGFR is overexpressed", "assay": "Example VI: non-small cell lung carcinoma metastasized to liver", "assay_type": "in vivo, human", "details": "patient, oral 5 mg/kg twice daily", "description": "After one month, PPARγ ligand administration is continued in combination with infusion of cisplatin every four weeks at 60 mg/m^2 for 12 more weeks."}}, "data": [{"smiles": "CC1(COc2ccc(CC3SC(=O)NC3=O)cc2)CCCCC1", "note": "(stereo not drawn) [ciglitazone]", "values": [{"measurement": "amount of HER-2/neu (immunoblot)", "setting": "[1]", "result": "decreased the amount of HER-2/neu"}, {"measurement": "amounts of HER-2/neu (immunoblot)", "setting": "HER-2/neu in BT474 cells", "result": "decreased amounts of HER-2/neu"}, {"measurement": "HER-2/neu promoter activity (luciferase normalized to β-galactosidase)", "setting": "HER-2/neu promoter", "result": "inhibited HER-2 neu promoter activity in a dose-dependent fashion"}, {"measurement": "amounts of EGFR (immunoblot)", "setting": "[2]", "result": "decreased amounts of EGFR"}, {"measurement": "recurrence of breast cancer", "setting": "[3]", "result": "Recurrence of breast cancer does not occur"}, {"measurement": "recurrence of breast cancer", "setting": "[4]", "result": "Recurrence of breast cancer does not occur"}, {"measurement": "tumor burden", "setting": "[5]", "result": "reduced tumor burden"}, {"measurement": "recurrence of colon cancer", "setting": "[6]", "result": "Recurrence of colon cancer does not occur"}, {"measurement": "tumor burden", "setting": "[7]", "result": "reduced tumor burden"}]}]}
